According to patent US20240285785A1, “TARGETING SORTILIN” (priority 2022, published 2024):
Where two headings read alike, the source gives them in different places.

Assay: Murine serum stability assay
Format: in vitro ADME, mouse (CD-1)
Conditions: male, CD-1, mouse, 37° C., read-out: Murine serum stability assay, T1/2
Protocol: Serum was drawn from male CD-1 mice by Pharmidex. Lyophilized peptides were solubilized in DMSO and then further diluted into male mouse (CD-1) serum at 37° C. in duplicates. The reaction was incubated at 37° C. and samples extracted at 6 time points: 0, 0.16, 0.5, 1, 3, and 6 hrs. Acetonitrile (ACN) with internal standard (tolbutamide) was added to stop the incubation. Samples were centrifuged, and the supernatant was analyzed by HPLC-MS/MS for the parent compound.

[1] = mouse serum, male CD-1 mouse serum

Molecule `CCCC[C@@H]1NC(=O)[C@@H](NC(=O)[C@H](CCC(N)=O)NC(=O)[C@H](C)NC(C)=O)CSSC[C@@H](C(=O)N[C@@H](CCCNC(=N)N)C(=O)N[C@@H](CCC(N)=O)C(=O)N[C@H](C(=O)N[C@@H](CC(C)(C)C)C(=O)O)C(C)(C)C)NC(=O)[C@H](C)NC(=O)[C@H](CCCNC(=N)N)NC(=O)[C@H](CC(N)=O)NC(=O)[C@H](CCCNC(=N)N)NC(=O)CNC1=O` [Arb_cyclic_C5] has a half-life [1] of 46.1 min.
In the case of `CC(=O)N[C@@H](Cc1c[nH]cn1)C(=O)N[C@@H](CC(N)=O)C(=O)N[C@@H](Cc1ccccc1)C(=O)N[C@@H](Cc1ccc(O)cc1)C(=O)N[C@H]1CSSC[C@@H](C(=O)N[C@@H](CCC(N)=O)C(=O)N[C@@H](CCCNC(=N)N)C(=O)N[C@@H](CCC(N)=O)C(=O)N[C@H](C(=O)N[C@@H](CC(C)(C)C)C(=O)O)C(C)(C)C)NC(=O)[C@H](Cc2c[nH]cn2)NC(=O)[C@H](CCCCN)NC(=O)[C@H](CCCNC(=N)N)NC1=O` [Arb_cyclic_C22], the half-life [1] is reported as 58.8 min.
`CCCC[C@H](NC(=O)[C@@H]1CSSC[C@H](NC(=O)[C@H](Cc2c[nH]cn2)NC(=O)[C@H](Cc2ccccc2)NC(=O)[C@H](CC(N)=O)NC(=O)[C@H](CCCNC(=N)N)NC(C)=O)C(=O)N[C@@H](CCCNC(=N)N)C(=O)N[C@@H](C)C(=O)N[C@@H](CCC(N)=O)C(=O)N1)C(=O)N[C@@H](CCCNC(=N)N)C(=O)N[C@@H](CCC(N)=O)C(=O)N[C@H](C(=O)N[C@@H](CC(C)(C)C)C(=O)O)C(C)(C)C` [Arb_cyclic_D21] showed a half-life [1] of 13.5 min.
For `CCCC[C@@H]1NC(=O)[C@H](CCCCN)NC(=O)[C@H](CCCNC(=N)N)NC(=O)[C@@H](NC(=O)[C@H](Cc2ccccc2)NC(=O)[C@@H](NC(=O)[C@H](CC(N)=O)NC(=O)[C@H](CCCNC(=N)N)NC(C)=O)[C@@H](C)CC)CSSC[C@@H](C(=O)N[C@@H](CCC(=O)O)C(=O)N[C@@H](CCCNC(=N)N)C(=O)N[C@@H](CCC(N)=O)C(=O)N[C@H](C(=O)N[C@@H](CC(C)(C)C)C(=O)O)C(C)(C)C)NC1=O` [Arb_cyclic_D24, RNIFCRK(Nle)CERQ(B13)(F02)], the half-life (serum) was 80.7 min.
In the case of `CC(=O)N[C@@H](CCC(=O)O)C(=O)N[C@@H](Cc1c[nH]c2ccccc12)C(=O)N[C@H]1CSSC[C@@H](C(=O)N[C@@H](CCCNC(=N)N)C(=O)N[C@@H](CCC(N)=O)C(=O)N[C@H](C(=O)N[C@@H](CC(C)(C)C)C(=O)O)C(C)(C)C)NC(=O)[C@H]([C@@H](C)O)NC(=O)[C@@H]2CCCN2C(=O)[C@H](Cc2c[nH]cn2)NC(=O)[C@H](CC(N)=O)NC(=O)[C@H](Cc2c[nH]cn2)NC(=O)[C@H](CC(C)C)NC(=O)CNC1=O` [Arb_cyclic_F3], the half-life [1] is reported as 173 min.
For `CC(=O)N[C@@H](CCCNC(=N)N)C(=O)N[C@@H](CC(=O)O)C(=O)N[C@H]1CSSC[C@@H](C(=O)N[C@@H](CCCNC(=N)N)C(=O)N[C@@H](CCC(N)=O)C(=O)N[C@H](C(=O)N[C@@H](CC(C)(C)C)C(=O)O)C(C)(C)C)NC(=O)[C@@H]2CCCN2C(=O)[C@@H]2CCCN2C(=O)[C@H](C)NC(=O)[C@H](CCCNC(=N)N)NC(=O)[C@H](CC(C)C)NC(=O)[C@H](CO)NC(=O)[C@H](C)NC1=O` [Arb_cyclic_G2], the half-life [1] was 20.8 min.
`CC(=O)N[C@@H](CCCNC(=N)N)C(=O)N[C@@H](CC(=O)O)C(=O)N[C@H]1CSSC[C@@H](C(=O)N[C@@H](CCCNC(=N)N)C(=O)N[C@@H](CCC(N)=O)C(=O)N[C@H](C(=O)N[C@@H](CC(C)(C)C)C(=O)O)C(C)(C)C)NC(=O)[C@H](C(C)C)NC(=O)[C@H](CCCCN)NC(=O)[C@H](C)NC(=O)[C@H](CCCNC(=N)N)NC(=O)[C@H](CC(C)C)NC(=O)[C@H](CO)NC(=O)[C@@H]2CCCN2C1=O` [Arb_cyclic_G4] showed a half-life [1] of 38.5 min.
With `CCCC[C@@H]1NC(=O)[C@H](CCCNC(=N)N)NC(=O)[C@H](CC(C)C)NC(=O)[C@H](CO)NC(=O)[C@H](C(C)C)NC(=O)[C@@H](NC(=O)[C@H](CC(=O)O)NC(=O)[C@H](CCCNC(=N)N)NC(C)=O)CSSC[C@@H](C(=O)N[C@@H](CCCNC(=N)N)C(=O)N[C@@H](CCC(N)=O)C(=O)N[C@H](C(=O)N[C@@H](CC(C)(C)C)C(=O)O)C(C)(C)C)NC(=O)[C@H](C(C)C)NC(=O)[C@H](Cc2c[nH]cn2)NC1=O` [Arb_cyclic_G5, RDCVSLR(Nle)HVCRQ(B13)(F02)] the half-life [1] was 95.2 min.
Work on `CC[C@H](C)[C@@H]1NC(=O)[C@@H](NC(=O)CNC(=O)[C@H](CCCNC(=N)N)NC(C)=O)CSSC[C@@H](C(=O)N[C@@H](CCCNC(=N)N)C(=O)N[C@@H](CCC(N)=O)C(=O)N[C@H](C(=O)N[C@@H](CC(C)(C)C)C(=O)O)C(C)(C)C)NC(=O)[C@H](C)NC(=O)[C@H](CC(=O)O)NC(=O)[C@H](CCC(N)=O)NC(=O)[C@H](CCCNC(=N)N)NC(=O)[C@H](CCCNC(=N)N)NC(=O)[C@@H]2CCCN2C1=O` [Arb_cyclic_G7] yielded a half-life [1] of 9.26 min.
Work on `CCCC[C@H](NC(=O)[C@H](CCCNC(=N)N)NC(C)=O)C(=O)N[C@H]1CSSC[C@@H](C(=O)N[C@@H](CCCNC(=N)N)C(=O)N[C@@H](CCC(N)=O)C(=O)N[C@H](C(=O)N[C@@H](CC(C)(C)C)C(=O)O)C(C)(C)C)NC(=O)[C@H](C)NC(=O)[C@@H]2CCCN2C(=O)[C@H](CO)NC(=O)[C@H](CCCNC(=N)N)NC(=O)[C@H]([C@@H](C)CC)NC(=O)[C@@H]2CCCN2C(=O)CNC1=O` [Arb_cyclic_G10] yielded a half-life [1] of 112 min.
`CCCC[C@@H]1NC(=O)[C@H](CCCNC(=N)N)NC(=O)[C@H](Cc2c[nH]cn2)NC(=O)[C@H]([C@@H](C)O)NC(=O)[C@H]([C@@H](C)O)NC(=O)[C@@H](NC(=O)[C@H](CO)NC(=O)[C@H](CCCNC(=N)N)NC(C)=O)CSSC[C@@H](C(=O)N[C@@H](CCCNC(=N)N)C(=O)N[C@@H](CCC(N)=O)C(=O)N[C@H](C(=O)N[C@@H](CC(C)(C)C)C(=O)O)C(C)(C)C)NC(=O)[C@H]([C@@H](C)O)NC(=O)[C@H](C)NC1=O` [Arb_cyclic_G14, RSCTTHR(Nle)ATCRQ(B13)(F02)] gave a half-life [1] of 50.9 min.
Molecule `CC(=O)N[C@@H](CCCNC(=N)N)C(=O)N[C@H](C(=O)N[C@H]1CSSC[C@@H](C(=O)N[C@@H](CCCNC(=N)N)C(=O)N[C@@H](CCC(N)=O)C(=O)N[C@H](C(=O)N[C@@H](CC(C)(C)C)C(=O)O)C(C)(C)C)NC(=O)[C@H](C)NC(=O)[C@@H]2CCCN2C(=O)[C@H](CC(N)=O)NC(=O)[C@H](CCCNC(=N)N)NC(=O)[C@H](CC(C)C)NC(=O)[C@H](Cc2c[nH]cn2)NC(=O)[C@H](CC(N)=O)NC1=O)[C@@H](C)O` [Arb_cyclic_G15] has a half-life (serum) of 19.3 min.
In the case of `CCCC[C@@H]1NC(=O)[C@H](CCCNC(=N)N)NC(=O)[C@H](Cc2c[nH]cn2)NC(=O)[C@H](CC(N)=O)NC(=O)[C@H](C)NC(=O)[C@@H](NC(=O)[C@@H](NC(=O)[C@H](CCCNC(=N)N)NC(C)=O)C(C)C)CSSC[C@@H](C(=O)N[C@@H](CCCNC(=N)N)C(=O)N[C@@H](CCC(N)=O)C(=O)N[C@H](C(=O)N[C@@H](CC(C)(C)C)C(=O)O)C(C)(C)C)NC(=O)[C@H]([C@@H](C)O)NC(=O)[C@H](CC(N)=O)NC1=O` [Arb_cyclic_G16, RVCANHR(Nle)NTCRQ(B13)(F02)], the half-life (serum) is reported as 11.2 min.
Molecule `CCCC[C@@H]1NC(=O)[C@H](CCCNC(=N)N)NC(=O)[C@H](CCC(N)=O)NC(=O)[C@H](CC(N)=O)NC(=O)[C@H](CCC(=O)O)NC(=O)[C@@H](NC(=O)[C@H](Cc2c[nH]c3ccccc23)NC(=O)[C@H](CCCNC(=N)N)NC(C)=O)CSSC[C@@H](C(=O)N[C@@H](CCCNC(=N)N)C(=O)N[C@@H](CCC(N)=O)C(=O)N[C@H](C(=O)N[C@@H](CC(C)(C)C)C(=O)O)C(C)(C)C)NC(=O)[C@H](C(C)C)NC(=O)[C@H]([C@@H](C)O)NC1=O` [Arb_cyclic_G22, RWCENQR(Nle)TVCRQ(B13)(F02)] has a half-life [1] of 49.2 min.
